The values that follow come from PubChem BioAssay (NCI).

Each structure is given as a SMILES string. Values joined by “and” are separate entries in the source; they are usually repeats but may differ in a detail not shown here. Equal entries are not always repeated.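 Tested at 5 concentrations; 48 h exposure; 96-well plates; endpoints linearly interpolated, else capped at highest concentration. Abbreviation: GI50, concentration required for 50% inhibition of growth. TGI is the concentration that stops growth completely.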

The first assay relates to SF-295 CNS. The assay is described as follows: DTP human tumour cell line panel, 48 h.
In turn, `CC(=O)O[C@H]1CCC2[C@@H]3CCC4Nc5[nH]ncc5C[C@]4(C)C3CC[C@@]21C` (some centres not stated) registered a concentration for total growth inhibition (TGI) of more than 100 µM.

In turn, `Cc1cc(C)nc(NS(=O)(=O)c2ccc(NC(=O)c3cccc4c(Nc5ccc(S(N)(=O)=O)cc5)c5ccccc5nc34)cc2)n1` registered a TGI of more than 100 µM.

For the compound `Cc1cc(S(=O)(=O)O)c(NC(=O)C(=O)Cc2cc(=O)oc3cc(O)ccc23)cc1Cl`, the total growth inhibition concentration (TGI) was more than 100 µM.

A further assay concerns HCT-116 colon. The assay can be described thus: DTP human tumour cell line panel, 48 h.
Turning to `CC(C)C(=O)NS(=O)(=O)c1ccccc1`, the TGI was more than 100 µM.

In turn, `COC1(OC)CC2C(=O)N(Cc3ccccc3)C1C=C2S(=O)(=O)c1ccccc1` (configuration not stated) registered a TGI of 26.7 µM.

For `Cc1cc(C)c(/C=C2\C(=O)Nc3ccc(NC(=O)CCCCCCC(=O)NO)cc32)[nH]1`, the GI50 is 0.3 µM and the TGI was 4.86 µM.

As to `CC(=O)[O][Ga]([Br])[O]C(C)=O`, the GI50 was more than 100 µM and the TGI is more than 100 µM.

As to `COc1cc2c(OC)cc1CSCc1sc(C)c(c1Br)CSC2`, the total growth inhibition concentration (TGI) was more than 100 µM.

With `CC(C)N(C(=O)C12C3C4C1(I)C1C2C3(I)C41C(=O)N(C(C)C)C(C)C)C(C)C` (configuration not stated), the TGI was more than 100 µM.

For the compound `Cc1cccc(C)c1NC(=O)C(=O)C(C(=O)c1ccccc1-c1ccccc1)C1OC(=O)c2ccccc21` (configuration not stated), the TGI came out at 27.8 µM. This lies in the double-digit micromolar range.

With `CC1COC(C)(C)P(=O)(c2ccccc2)C1` (configuration not stated), the TGI is more than 100 µM.

On to `Cc1ccc(S(=O)(=O)c2ccc(N)cc2)cc1`, for which the TGI is more than 100 µM.

The compound `CCOP(=O)(OCC)OC1C=CC2CCC1C2` (configuration not stated) gave a concentration for total growth inhibition (TGI) of more than 100 µM.

The compound `COC(=O)[C@H]1C=C[C@@H](C)n2c(=O)c3cc4ccccc4cc3c(=O)n21` showed a TGI of more than 100 µM.

In turn, `COc1cc(C=O)c(-c2cc(OC)c(OC)cc2C=O)cc1OC` displayed a TGI of more than 100 µM.

`N#CC(C(=O)C(=O)Nc1ccc(Cl)cc1)c1ccccc1` (configuration not stated) gave a TGI of more than 100 µM.

`COc1c[c]([Hg][O]C(C)=O)c(OC)c(NC(=O)CC(C)=O)[c]1[Hg][O]C(C)=O`: the GI50 was 13.1 µM and the TGI turned out to be 34.8 µM.

Compound `COC(=O)/C=C1\CCC(C)O1` (configuration not stated) registered a TGI of more than 100 µM.

For `O=C(/C=C/c1ccccc1Cl)NC1C=Nc2ccc([N+](=O)[O-])cc2NC1` (configuration not stated), the TGI is more than 100 µM.

For the compound `CCCO/S(=N\S(=O)(=O)c1ccccc1)c1ccccc1[N+](=O)[O-]` (configuration not stated), the TGI was more than 100 µM.

Compound `C/C(CC(=O)Nc1cccc(Cl)c1C)=N\NC(=O)c1ccncc1` returned a TGI of more than 100 µM.

With `Cc1cc(NS(=O)(=O)c2ccc(Nc3c4ccccc4nc4c(C(=O)N5CCN(CCO)CC5)ccc(Cl)c34)cc2)no1`, the TGI is more than 100 µM.

In the case of `COC(=O)[C@@H](C)C[C@H](Cc1ccccc1)NC(=O)c1csc([C@@H](C[C@H](C(C)C)N(C)C(=O)[C@@H](NC(=O)[C@H]2CCCCN2C)C2CCCCC2)OC(C)=O)n1`, the 50% growth inhibitory concentration (GI50) is 0.000325 µM and 0.0025 µM; the TGI amounted to 0.00325 µM.

As to `Cc1nc([N+](=O)[O-])cn1CC(=N)N`, the TGI is more than 100 µM.

Take `COC(=O)/C=C/c1c(CC=C(C)C)ncn1C`: the TGI was more than 100 µM.

In turn, `CC(C)C(=O)Nc1nc2c(ncn2C2OC(CO)C(O)C2O)c(=O)[nH]1` (configuration not stated) returned a TGI of more than 100 µM.

As for `O=S(=O)(c1ccccc1)C1CN2OC1(S(=O)(=O)c1ccccc1)CC2c1ccc(Br)cc1` (configuration not stated), the TGI is more than 100 µM.

Turning to `O=Cc1ccc2c(c1-c1c(C=O)ccc3c1OCO3)OCO2`, the TGI is more than 100 µM.

`CC(=O)O[C@H]1CCC2[C@@H]3CCC4Nc5[nH]ncc5C[C@]4(C)C3CC[C@@]21C` (some centres not stated) returned a concentration for total growth inhibition (TGI) of more than 100 µM.

`Cc1cc(C)nc(NS(=O)(=O)c2ccc(NC(=O)c3cccc4c(Nc5ccc(S(N)(=O)=O)cc5)c5ccccc5nc34)cc2)n1` came in with a TGI of 21.7 µM. This counts as double-digit micromolar.

`Cc1cc(S(=O)(=O)O)c(NC(=O)C(=O)Cc2cc(=O)oc3cc(O)ccc23)cc1Cl` came in with a TGI of more than 100 µM.

Another assay concerns EKVX NSCLC. The assay is described as follows: DTP human tumour cell line panel, 48 h.
With `CC(C)C(=O)NS(=O)(=O)c1ccccc1`, the TGI is more than 100 µM.

In turn, `COC1(OC)CC2C(=O)N(Cc3ccccc3)C1C=C2S(=O)(=O)c1ccccc1` (configuration not stated) gave a TGI of 33.1 µM.

Turning to `COc1cc2c(OC)cc1CSCc1sc(C)c(c1Br)CSC2`, the TGI was more than 100 µM.

Regarding `CC(C)N(C(=O)C12C3C4C1(I)C1C2C3(I)C41C(=O)N(C(C)C)C(C)C)C(C)C` (configuration not stated), the TGI is more than 100 µM.

On to `Cc1cccc(C)c1NC(=O)C(=O)C(C(=O)c1ccccc1-c1ccccc1)C1OC(=O)c2ccccc21` (configuration not stated), for which the TGI was found to be 65.4 µM.

On to `CC1COC(C)(C)P(=O)(c2ccccc2)C1` (configuration not stated), for which the TGI was more than 100 µM.

As for `Cc1ccc(S(=O)(=O)c2ccc(N)cc2)cc1`, the TGI is more than 100 µM.

Regarding `CCOP(=O)(OCC)OC1C=CC2CCC1C2` (configuration not stated), the TGI was more than 100 µM.

Consider `COC(=O)[C@H]1C=C[C@@H](C)n2c(=O)c3cc4ccccc4cc3c(=O)n21`, for which the TGI was more than 100 µM.

As to `COc1cc(C=O)c(-c2cc(OC)c(OC)cc2C=O)cc1OC`, the TGI was more than 100 µM.

As to `N#CC(C(=O)C(=O)Nc1ccc(Cl)cc1)c1ccccc1` (configuration not stated), the concentration for total growth inhibition (TGI) is more than 100 µM.

In the case of `COc1c[c]([Hg][O]C(C)=O)c(OC)c(NC(=O)CC(C)=O)[c]1[Hg][O]C(C)=O`, the GI50 was 19.9 µM and the total growth inhibition concentration (TGI) came out at 36.3 µM.

The compound `COC(=O)/C=C1\CCC(C)O1` (configuration not stated) gave a total growth inhibition concentration (TGI) of more than 100 µM.

Regarding `O=C(/C=C/c1ccccc1Cl)NC1C=Nc2ccc([N+](=O)[O-])cc2NC1` (configuration not stated), the TGI was more than 100 µM.

Compound `CCCO/S(=N\S(=O)(=O)c1ccccc1)c1ccccc1[N+](=O)[O-]` (configuration not stated) yielded a TGI of more than 100 µM.

With `Cc1ccc(C)c(N=C2NC(=O)C(CC(=O)Nc3ccc(Cl)cc3Cl)S2)c1` (configuration not stated), the TGI was more than 100 µM.

Compound `C/C(CC(=O)Nc1cccc(Cl)c1C)=N\NC(=O)c1ccncc1` yielded a TGI of more than 100 µM.

On to `COC(=O)[C@@H](C)C[C@H](Cc1ccccc1)NC(=O)c1csc([C@@H](C[C@H](C(C)C)N(C)C(=O)[C@@H](NC(=O)[C@H]2CCCCN2C)C2CCCCC2)OC(C)=O)n1`, for which the 50% growth inhibitory concentration (GI50) is 0.00278 µM.

As to `Cc1nc([N+](=O)[O-])cn1CC(=N)N`, the TGI is more than 100 µM.

As for `COC(=O)/C=C/c1c(CC=C(C)C)ncn1C`, the TGI was more than 100 µM.

Turning to `CC(C)C(=O)Nc1nc2c(ncn2C2OC(CO)C(O)C2O)c(=O)[nH]1` (configuration not stated), the TGI is more than 100 µM.

As for `O=S(=O)(c1ccccc1)C1CN2OC1(S(=O)(=O)c1ccccc1)CC2c1ccc(Br)cc1` (configuration not stated), the TGI is more than 100 µM.

Regarding `O=Cc1ccc2c(c1-c1c(C=O)ccc3c1OCO3)OCO2`, the TGI is more than 100 µM.

On to `CC(=O)O[C@H]1CCC2[C@@H]3CCC4Nc5[nH]ncc5C[C@]4(C)C3CC[C@@]21C` (some centres not stated), for which the TGI was more than 100 µM.

Take `Cc1cc(C)nc(NS(=O)(=O)c2ccc(NC(=O)c3cccc4c(Nc5ccc(S(N)(=O)=O)cc5)c5ccccc5nc34)cc2)n1`: the TGI was more than 100 µM.

In turn, `Cc1cc(S(=O)(=O)O)c(NC(=O)C(=O)Cc2cc(=O)oc3cc(O)ccc23)cc1Cl` showed a concentration for total growth inhibition (TGI) of more than 100 µM.
